For test [1], the target named is T1, TC-PTP (Homo sapiens, UniProt P17706).
T1 sequence (P17706 1-415): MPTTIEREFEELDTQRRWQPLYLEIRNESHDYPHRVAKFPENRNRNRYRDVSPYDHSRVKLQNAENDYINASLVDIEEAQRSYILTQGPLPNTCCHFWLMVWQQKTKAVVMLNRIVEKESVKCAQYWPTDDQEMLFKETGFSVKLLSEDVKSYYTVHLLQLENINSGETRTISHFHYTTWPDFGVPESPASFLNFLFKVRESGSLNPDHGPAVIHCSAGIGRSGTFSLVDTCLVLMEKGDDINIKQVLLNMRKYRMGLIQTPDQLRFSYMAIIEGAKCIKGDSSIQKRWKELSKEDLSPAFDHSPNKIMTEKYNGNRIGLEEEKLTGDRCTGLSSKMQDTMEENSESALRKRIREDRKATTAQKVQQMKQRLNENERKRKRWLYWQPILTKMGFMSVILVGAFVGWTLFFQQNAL
As to the kind of experiment: PTP activity assay with pNPP substrate (IC50, Ki, mode of inhibition). Format: biochemical. To be noted: pNPP 2 mM, pH 7.0, 25° C.; read-out: IC50, nM TC-PTP. The method, then:
(§1) PTP activity was assayed using p-nitrophenyl phosphate (pNPP) as a substrate in DMG buffer (50 mM DMG. pH 7.0, 1 mM EDTA, 150 mM NaCl, 2 mM DTT, 0.1 mg/mL BSA) at 25° C. The assays were performed in 96-well plates. Normally, to determine the IC50 values, the reaction was initiated by the addition of enzyme (for PTP1B and TCPTP, the final concentration was 0.4 nM, for other PTPs, the final concentration was 10 nM) to a reaction mixture (0.2 mL) containing 2 mM (Km for the substrate) pNPP with various concentrations of inhibitors (see FIG. 1). The reaction rate was measured using a SpectraMax Plus 384 Microplate Spectrophotometer (Molecular Devices). Data were fitted using SigmaPlot Enzyme Kinetics Module (Systat Software, Inc.). To determine the mode of inhibition, the reactions were initiated by the addition of enzyme (final concentration for TC-PTP and PTP1B was 0.4 nM) to the reaction mixtures (0.2 mL) containing various concentrations of pNPP with different concentrations of the inhibitor. Data were fitted using SigmaPlot Enzyme Kinetics Module (Systat Software. Inc.).

The target of test [2] is T2, PTP1B (Homo sapiens, UniProt P18031).
T2 sequence (P18031 1-435): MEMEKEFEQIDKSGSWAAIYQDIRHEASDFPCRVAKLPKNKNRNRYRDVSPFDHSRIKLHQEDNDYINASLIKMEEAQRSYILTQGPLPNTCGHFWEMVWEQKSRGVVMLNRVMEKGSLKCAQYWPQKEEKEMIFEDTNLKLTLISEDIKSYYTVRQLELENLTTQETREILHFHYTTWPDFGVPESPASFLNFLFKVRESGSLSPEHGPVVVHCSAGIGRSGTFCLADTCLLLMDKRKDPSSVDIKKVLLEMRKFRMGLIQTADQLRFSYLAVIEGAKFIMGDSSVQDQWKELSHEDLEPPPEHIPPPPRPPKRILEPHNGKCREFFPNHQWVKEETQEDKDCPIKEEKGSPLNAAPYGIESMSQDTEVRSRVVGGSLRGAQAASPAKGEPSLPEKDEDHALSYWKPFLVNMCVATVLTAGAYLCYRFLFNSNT
The description is as above. The format is biochemical. To be noted: pNPP 2 mM, pH 7.0, 25° C.; read-out: IC50, nM PTP1B. How it is done: as §1

In test [3] the target is T1, TC-PTP. The test can be described thus: Degradation assay in HEK293 cells (immunoblotting). Set-up: endogenous in cells; host or cells: HEK293. Particulars: 0.2 μM degrader, 16 hours, read-out: % Protein Degradation TC-PTP. The format is cell-based. The method, then:
(§2) HEK293. MIAPaCa-2, HepG2, U2OS, H116, MEF, B16F10, and MC38 cells, were grown in DMEM, while Jurkat and H358 cells were grown in RPMI 1640 supplemented with 10% fetal bovine serum, penicillin (50 units/mL), and streptomycin (50 μg/mL) in a 37° C. incubator containing 5% CO2. 20 ng/ml human (Biolegend #713906) or mouse (Biolegend #714006) Interferon-γ were used for JAK/STAT pathway stimulation.
(§3) Tissues or cultured cells were lysed with ice-cold lysis buffer (50 mM Tris (pH 8.0, 150 mM NaCl, 10% Glycerol, 1% Triton-X-100) supplied with phosphatase inhibitor (Bimake) and protease inhibitor mixture (Roche Applied Science). Equal amounts of protein were resolved by SDS-PAGE, transferred to nitrocellulose membrane, and subjected to immunoblotting. Antibodies used in this study include anti-following proteins: pSTAT1^Tyr701 (Cell Signaling Technology #9167, 1:3000), GAPDH (Cell Signaling Technology #97166, 1:5000), pJAK1^Tyr1034/1035 (Cell Signaling Technology #74129, 1:1000), pJAK2^Tyr1007/1008 (Cell Signaling Technology #3776, 1:1000), TC-PTP (Abcam #ab180764, 1:3000). PTP1B (Abcam #ab244207, 1:1500).
(§4) Degradation assay was conducted in HEK293 cells with 1 μM degrader and 24 hours incubation.
(§5) The degradation assay was conducted in HEK293 cells with 0.2 μM degrader and 16 hours incubation.
In general terms: A western blot detects proteins with antibodies after separation by electrophoresis.

Test [4] concerns the target T2, PTP1B. As to the kind of experiment: Degradation assay in HEK293 cells (immunoblotting). Format: cell-based. Details: endogenous in cells; host or cells: HEK293. To be noted: 0.2 μM degrader, 16 hours. How it is done:
as §2, §3, §4, §5

*1 amine or outer side, *2 acyl side, *3 side chain or, on linkers, in order; H or OH if unused. Where a SMILES comes first, the peptide text is derived from it. [ ]: non-standard residue; d: D form. The star is where a group is joined. NHBn(4-(4-Me-thiazol-5-yl)) = Cc1ncsc1-c1ccc(CN*)cc1; NHCH2(1,3-C6H4)CH2CO = O=C(Cc1cccc(CN[*:1])c1)[*:2]; F2Pmp = N[C@@H](Cc1ccc(C(F)(F)P(=O)(O)O)cc1)C(=O)O; Phenylacetyl(4-OH,3-OMe) = COc1cc(CC(=O)*)ccc1O; Benzoyl(3-Br,4-Me) = Cc1ccc(C(=O)*)cc1Br; X1 = Cc1ncsc1-c1ccc([C@H](C)N*)cc1; Hyp = O=C(O)[C@@H]1C[C@@H](O)CN1; X2 = O=C(CCN1CCN([*:1])CC1)[*:2]; Tle = CC(C)(C)[C@H](N)C(=O)O; 4Amb = NCc1ccc(C(=O)O)cc1; PEG1 = NCCOCCC(=O)O

By IC50 is commonly meant the point on the concentration scale where inhibition reaches its midpoint. As to `COc1cc(CC(=O)N[C@@H](Cc2ccccc2)C(=O)N[C@@H](Cc2ccc(C(F)(F)P(=O)(O)O)cc2)C(=O)N[C@@H](CCCCNC(=O)c2ccc(C)c(Br)c2)C(=O)NCCOCCC(=O)N[C@H](C(=O)N2C[C@H](O)C[C@H]2C(=O)N[C@@H](C)c2ccc(-c3scnc3C)cc2)C(C)(C)C)ccc1O` [Compound 27, ((4-((2S,5S,15S)-5-(4-(3-bromo-4-methylbenzamido)butyl)-15-((2S,4R)-4-hydroxy-2-(((S)-1-(4-(4-methylthiazol-5-yl)phenyl)ethyl)carbamoyl)pyrrolidine-1-carbonyl)-2-((S)-2-(2-(4-hydroxy-3-methoxyphenyl)acetamido)-3-phenylpropanamido)-16,16-dimethyl-3,6,13-trioxo-10-oxa-4,7,14-triazaheptadecyl)phenyl)difluoromethyl)phosphonic Acid] ({Phenylacetyl(4-OH,3-OMe)}-F[F2Pmp]K(Benzoyl(3-Br,4-Me))[PEG1][Tle][Hyp]-X1), the results for the IC50 at TC-PTP [1] and on PTP1B [2] were 6.7 ± 2 nM and 15.5 ± 2.1 nM, respectively. Besides, the percent TC-PTP degradation at 0.2 µM on TC-PTP [3] worked out at 63%. Further, the “% Protein Degradation PTP1B” value on PTP1B [4] was determined as 75%.

For the compound `COc1cc(CC(=O)N[C@@H](Cc2ccccc2)C(=O)N[C@@H](Cc2ccc(C(F)(F)P(=O)(O)O)cc2)C(=O)N[C@@H](CCCCNC(=O)c2ccc(C)c(Br)c2)C(=O)NCCOCCC(=O)N[C@H](C(=O)N2C[C@H](O)C[C@H]2C(=O)NCc2ccc(-c3scnc3C)cc2)C(C)(C)C)ccc1O` [Compound 28, ((4-((2S,5S,15S)-5-(4-(3-bromo-4-methylbenzamido)butyl)-15-((2S,4R)-4-hydroxy-2-((4-(4-methylthiazol-5-yl)benzyl)carbamoyl)pyrrolidine-1-carbonyl)-2-((S)-2-(2-(4-hydroxy-3-methoxyphenyl)acetamido)-3-phenylpropanamido)-16,16-dimethyl-3,6,13-trioxo-10-oxa-4,7,14-triazaheptadecyl)phenyl)difluoromethyl)phosphonic Acid] ({Phenylacetyl(4-OH,3-OMe)}-F[F2Pmp]K(Benzoyl(3-Br,4-Me))[PEG1][Tle][Hyp]-{NHBn(4-(4-Me-thiazol-5-yl))}), the figures for the IC50 on TC-PTP [1] and on PTP1B [2] were 11.2 ± 1.3 nM and 15.4 ± 3.3 nM, respectively. In addition, at TC-PTP [3], the percent TC-PTP degradation at 0.2 µM was found to be 47%. For the same compound, the “% Protein Degradation PTP1B” value at PTP1B [4] worked out at 45%.

On to `COc1cc(CC(=O)N[C@@H](Cc2ccccc2)C(=O)N[C@@H](Cc2ccc(C(F)(F)P(=O)(O)O)cc2)C(=O)N[C@@H](CCCCNC(=O)c2ccc(C)c(Br)c2)C(=O)NCc2cccc(CC(=O)N[C@H](C(=O)N3C[C@H](O)C[C@H]3C(=O)NCc3ccc(-c4scnc4C)cc3)C(C)(C)C)c2)ccc1O` [Compound 48, ((4-((S)-3-(((S)-6-(3-bromo-4-methylbenzamido)-1-((3-(2-(((S)-1-((2S,4R)-4-hydroxy-2-((4-(4-methylthiazol-5-yl)benzyl)carbamoyl)pyrrolidin-1-yl)-3,3-dimethyl-1-oxobutan-2-yl)amino)-2-oxoethyl)benzyl)amino)-1-oxohexan-2-yl)amino)-2-((S)-2-(2-(4-hydroxy-3-methoxyphenyl)acetamido)-3-phenylpropanamido)-3-oxopropyl)phenyl)difluoromethyl)phosphonic Acid] ({Phenylacetyl(4-OH,3-OMe)}-F[F2Pmp]K(Benzoyl(3-Br,4-Me))[NHCH2(1,3-C6H4)CH2CO][Tle][Hyp]-{NHBn(4-(4-Me-thiazol-5-yl))}), for which the IC50 amounted to 11.5 ± 0.6 nM on TC-PTP [1] and 16.7 ± 3.3 nM on PTP1B [2]. Also, the percent TC-PTP degradation at 0.2 µM on TC-PTP [3] was found to be 70%. Further, the “% Protein Degradation PTP1B” value at PTP1B [4] was determined as 75%.

For `COc1cc(CC(=O)N[C@@H](Cc2ccccc2)C(=O)N[C@@H](Cc2ccc(C(F)(F)P(=O)(O)O)cc2)C(=O)N[C@@H](CCCCNC(=O)c2ccc(C)c(Br)c2)C(=O)NCc2ccc(C(=O)N[C@H](C(=O)N3C[C@H](O)C[C@H]3C(=O)NCc3ccc(-c4scnc4C)cc3)C(C)(C)C)cc2)ccc1O` [Compound 54, ((4-((S)-3-(((S)-6-(3-bromo-4-methylbenzamido)-1-((4-(((S)-1-((2S,4R)-4-hydroxy-2-((4-(4-methylthiazol-5-yl)benzyl)carbamoyl)pyrrolidin-1-yl)-3,3-dimethyl-1-oxobutan-2-yl)carbamoyl)benzyl)amino)-1-oxohexan-2-yl)amino)-2-((S)-2-(2-(4-hydroxy-3-methoxyphenyl)acetamido)-3-phenylpropanamido)-3-oxopropyl)phenyl)difluoromethyl)phosphonic Acid] ({Phenylacetyl(4-OH,3-OMe)}-F[F2Pmp]K(Benzoyl(3-Br,4-Me))[4Amb][Tle][Hyp]-{NHBn(4-(4-Me-thiazol-5-yl))}), the IC50 on TC-PTP [1] worked out at 21.3 ± 1.7 nM; on PTP1B [2], 51.2 ± 14.4 nM. The percent TC-PTP degradation at 0.2 µM on TC-PTP [3] worked out at 37%. For the same compound, at PTP1B [4], the “% Protein Degradation PTP1B” value is reported as 24%.

`COc1cc(CC(=O)N[C@@H](Cc2ccccc2)C(=O)N[C@@H](Cc2ccc(C(F)(F)P(=O)(O)O)cc2)C(=O)N[C@@H](CCCCNC(=O)c2ccc(C)c(Br)c2)C(=O)N2CCN(CCC(=O)N[C@H](C(=O)N3C[C@H](O)C[C@H]3C(=O)NCc3ccc(-c4scnc4C)cc3)C(C)(C)C)CC2)ccc1O` [Compound 56, ((4-((S)-3-(((S)-6-(3-bromo-4-methylbenzamido)-1-(4-(3-(((S)-1-((2S,4R)-4-hydroxy-2-((4-(4-methylthiazol-5-yl)benzyl)carbamoyl)pyrrolidin-1-yl)-3,3-dimethyl-1-oxobutan-2-yl)amino)-3-oxopropyl)piperazin-1-yl)-1-oxohexan-2-yl)amino)-2-((S)-2-(2-(4-hydroxy-3-methoxyphenyl)acetamido)-3-phenylpropanamido)-3-oxopropyl)phenyl)difluoromethyl)phosphonic Acid] ({Phenylacetyl(4-OH,3-OMe)}-F[F2Pmp]K(Benzoyl(3-Br,4-Me))[X2][Tle][Hyp]-{NHBn(4-(4-Me-thiazol-5-yl))}): the IC50 on TC-PTP [1] was found to be 12 ± 0.8 nM; at PTP1B [2], 13.7 ± 1.9 nM. Further, at TC-PTP [3], the percent TC-PTP degradation at 0.2 µM is 14%. Further, the “% Protein Degradation PTP1B” value on PTP1B [4] was 30%.
